From article PMC8963254, “Effects of Lysine N-ζ-Methylation in Ultrashort Tetrabasic Lipopeptides (UTBLPs) on the Potentiation of Rifampicin, Novobiocin, and Niclosamide in Gram-Negative Bacteria” (Antibiotics, 2022)
Values after ≈ are worked out from the molar mass of the structure shown. Read-outs that look alike come from different tables or passages of the source. Non-standard residues stand in square brackets, D forms with d. Residues, ends and D or L forms follow the SMILES beside them. *: point of attachment. Lys(Me2) = CN(C)CCCC[C@H](N)C(=O)O; Octanoyl = CCCCCCCC(=O)*

Experiments:
[1] = system: E. faecium ATCC 27270; type: cell-based, Enterococcus faecium
Experimental: (§1) The synergy of the UTBLPs with various antibiotics was assessed using checkerboard assay as previously described. Briefly, the combination of antibiotic and OMP at varying concentrations were incubated with bacterial inoculum (5 × 10^5 CFU/mL final concentration) at 37 °C for 18 h. Growth in the form of turbidity was confirmed using an EMax Plus microplate reader (Molecular Devices, Union City, CA, USA) at 590 nm. Fractional inhibitory concentration index (FICI) was used to evaluate the interaction between the antibiotic and the OMP. FICI is the sum of the FIC of the antibiotic and the FIC of the OMP. The FIC value is calculated by dividing the MIC of the agents in combination by the MIC of the agent alone. FICI ≤ 0.5 is synergistic, 0.5 < x ≤ 4 is additive, and >4 is antagonistic.

[2] = system: E. coli 94393; experiment: microbe, parasite or virus in culture; type: cell-based, Escherichia coli; details: 94393, 18 h
Experimental: (§2) The in vitro antibacterial activity of the UTBLPs was assessed against wild-type and clinically isolated bacterial strains. To obtain the MIC of the compounds, the microbroth dilution susceptibility assay was performed according to the Clinical and Laboratory Standards Institute (CLSI, Wayne, PA, USA) guidelines and as previously described. Briefly, the compounds at varying concentrations were incubated with bacterial inoculum (5 × 10^5 CFU/mL final concentration) at 37 °C for 18 h. Growth in the form of turbidity was confirmed using an EMax Plus microplate reader (Molecular Devices, San Jose, CA, USA) at 590 nm.

[3] = system: E. coli 94474; experiment: microbe, parasite or virus in culture; type: cell-based, Escherichia coli; details: 94474, 18 h
Experimental: as §2

[4] = system: P. aeruginosa PA259-96196; experiment: microbe, parasite or virus in culture; type: cell-based, Pseudomonas aeruginosa; details: PA259-96196, 18 h
Experimental: as §2

[5] = system: P. aeruginosa PA262-101856; experiment: microbe, parasite or virus in culture; type: cell-based, Pseudomonas aeruginosa; details: PA262-101856, 18 h
Experimental: as §2

[6] = system: MRSA ATCC 33592; type: cell-based, Staphylococcus aureus; details: ATCC 33592, 18 h
Experimental: as §2

[7] = system: S. aureus ATCC 29213; type: cell-based, Staphylococcus aureus; details: ATCC 29213, 18 h
Experimental: as §2

[8] = system: E. faecalis ATCC 29212; type: cell-based, Enterococcus faecalis; details: ATCC 29212, 18 h
Experimental: as §2

[9] = system: P. aeruginosa PAO1; type: cell-based, Pseudomonas aeruginosa; details: for MICUTBLP: UTBLP alone
Experimental: as §1

[10] = system: P. aeruginosa PA259-96196; type: cell-based, Pseudomonas aeruginosa; details: for MICUTBLP: UTBLP alone
Experimental: as §1

[11] = system: P. aeruginosa PA262-101856; type: cell-based, Pseudomonas aeruginosa; details: for MICUTBLP: UTBLP alone
Experimental: as §1

[12] = system: E. coli 94393; type: cell-based, Escherichia coli; details: for MICUTBLP: UTBLP alone
Experimental: as §1

[13] = system: E. coli ATCC 25922; type: cell-based, Escherichia coli; details: for MICUTBLP: UTBLP alone
Experimental: as §1

[14] = system: E. coli 94474; type: cell-based, Escherichia coli; details: for MICUTBLP: UTBLP alone
Experimental: as §1

[15] = UTBLP in combination with chloramphenicol
[16] = chloramphenicol in combination with the UTBLP
[17] = UTBLP in combination with niclosamide
[18] = UTBLP in combination with novobiocin
[19] = UTBLP in combination with rifampicin
[20] = niclosamide in combination with the UTBLP
[21] = novobiocin in combination with the UTBLP
[22] = rifampicin in combination with the UTBLP

MICUTBLP ([1]; UTBLP alone, plate with chloramphenicol): 128 µg/mL
MICUTBLP [MICcombo] [1, 15]: 0.25 µg/mL
MICchloramphenicol [MICcombo] [1, 16]: 4 µg/mL
MIC [2]: 64 µg/mL (≈ 62.6 µM)
MIC [3]: 128 µg/mL (≈ 125 µM)
MIC [4]: > 128 µg/mL
MIC [5]: > 128 µg/mL
MIC [6]: >128 µg/mL
MIC [7]: >128 µg/mL
MIC [8]: 64 µg/mL (≈ 62.6 µM)
MICUTBLP ([9]; plate with chloramphenicol): > 128 µg/mL
MICUTBLP ([9]; plate with niclosamide): > 128 µg/mL
MICUTBLP ([9]; plate with novobiocin): > 128 µg/mL
MICUTBLP ([9]; plate with rifampicin): > 128 µg/mL
MICUTBLP [MICcombo] [9, 15]: 8 µg/mL
MICUTBLP [MICcombo] [9, 17]: 0.25 µg/mL
MICUTBLP [MICcombo] [9, 18]: 16 µg/mL
MICUTBLP [MICcombo] [9, 19]: 16 µg/mL
MICantibiotic [MICcombo] [9, 16]: 8 µg/mL
MICantibiotic [MICcombo] [9, 20]: 1024 µg/mL
MICantibiotic [MICcombo] [9, 21]: 128 µg/mL
MICantibiotic [MICcombo] [9, 22]: 4 µg/mL
MICUTBLP ([10]; plate with novobiocin): > 128 µg/mL
MICUTBLP ([10]; plate with rifampicin): > 128 µg/mL
MICUTBLP [MICcombo] [10, 18]: 16 µg/mL
MICUTBLP [MICcombo] [10, 19]: 16 µg/mL
MICantibiotic [MICcombo] [10, 21]: 512 µg/mL
MICantibiotic [MICcombo] [10, 22]: 8 µg/mL
MICUTBLP ([11]; plate with novobiocin): > 128 µg/mL
MICUTBLP ([11]; plate with rifampicin): > 128 µg/mL
MICUTBLP [MICcombo] [11, 18]: 16 µg/mL
MICUTBLP [MICcombo] [11, 19]: 16 µg/mL
MICantibiotic [MICcombo] [11, 21]: 512 µg/mL
MICantibiotic [MICcombo] [11, 22]: 512 µg/mL
MICUTBLP ([12]; plate with novobiocin): 64 µg/mL
MICUTBLP ([12]; plate with rifampicin): 64 µg/mL
MICUTBLP [MICcombo] [12, 18]: 4 µg/mL
MICUTBLP [MICcombo] [12, 19]: 8 µg/mL
MICantibiotic [MICcombo] [12, 21]: 2 µg/mL
MICantibiotic [MICcombo] [12, 22]: 0.5 µg/mL
MICUTBLP ([13]; plate with chloramphenicol): 64 µg/mL
MICUTBLP ([13]; plate with niclosamide): 64 µg/mL
MICUTBLP ([13]; plate with novobiocin): 64 µg/mL
MICUTBLP ([13]; plate with rifampicin): 64 µg/mL
MICUTBLP [MICcombo] [13, 15]: 16 µg/mL
MICUTBLP [MICcombo] [13, 17]: 4 µg/mL
MICUTBLP [MICcombo] [13, 18]: 2 µg/mL
MICUTBLP [MICcombo] [13, 19]: 8 µg/mL
MICantibiotic [MICcombo] [13, 16]: 0.5 µg/mL
MICantibiotic [MICcombo] [13, 20]: 1 µg/mL
MICantibiotic [MICcombo] [13, 21]: 2 µg/mL
MICantibiotic [MICcombo] [13, 22]: 0.125 µg/mL
MICUTBLP ([14]; plate with novobiocin): 128 µg/mL
MICUTBLP ([14]; plate with rifampicin): 128 µg/mL
MICUTBLP [MICcombo] [14, 18]: 8 µg/mL
MICUTBLP [MICcombo] [14, 19]: 16 µg/mL
MICantibiotic [MICcombo] [14, 21]: 16 µg/mL
MICantibiotic [MICcombo] [14, 22]: 1 µg/mL
SMILES: CCCCCCCC(=O)NCCCC[C@H](NC(=O)CCCCCCC)C(=O)N[C@@H](CCCCN(C)C)C(=O)N[C@@H](CCCCN(C)C)C(=O)N[C@@H](CCCCN(C)C)C(=O)N[C@@H](CCCCN(C)C)C(N)=O [UTBLP 7] (Octanoyl-K(Octanoyl)[Lys(Me2)][Lys(Me2)][Lys(Me2)][Lys(Me2)]-NH2)
Interpretation ([1]; UTBLP + chloramphenicol): Additive (0.5 < x ≤ 4 is additive)
Interpretation ([9]; UTBLP + chloramphenicol): Additive (0.5 < x ≤ 4 is additive)
Interpretation ([9]; UTBLP + niclosamide): Additive (0.5 < x ≤ 4 is additive)
Interpretation ([9]; UTBLP + novobiocin): Synergy (FICI ≤ 0.5 is synergistic)
Interpretation ([9]; UTBLP + rifampicin): Additive (0.5 < x ≤ 4 is additive)
Interpretation ([10]; UTBLP + novobiocin): Additive (0.5 < x ≤ 4 is additive)
Interpretation ([10]; UTBLP + rifampicin): Additive (0.5 < x ≤ 4 is additive)
Interpretation ([11]; UTBLP + novobiocin): Additive (0.5 < x ≤ 4 is additive)
Interpretation ([11]; UTBLP + rifampicin): Additive (0.5 < x ≤ 4 is additive)
Interpretation ([12]; UTBLP + novobiocin): Synergy (FICI ≤ 0.5 is synergistic)
Interpretation ([12]; UTBLP + rifampicin): Synergy (FICI ≤ 0.5 is synergistic)
Interpretation ([13]; UTBLP + chloramphenicol): Synergy (FICI ≤ 0.5 is synergistic)
Interpretation ([13]; UTBLP + niclosamide): Synergy (FICI ≤ 0.5 is synergistic)
Interpretation ([13]; UTBLP + novobiocin): Synergy (FICI ≤ 0.5 is synergistic)
Interpretation ([13]; UTBLP + rifampicin): Synergy (FICI ≤ 0.5 is synergistic)
Interpretation ([14]; UTBLP + novobiocin): Synergy (FICI ≤ 0.5 is synergistic)
Interpretation ([14]; UTBLP + rifampicin): Synergy (FICI ≤ 0.5 is synergistic)
